Source: US9976141B2, “Compositions and methods for inhibiting gene expression of Hif2alpha” (Arrowhead Madison Inc., priority 2015, dated 2018)
Strand notation (5' to 3'): a small letter for the sugar, then the base; units joined by * are phosphorothioate-linked, units joined directly phosphodiester-linked; [ ] holds rarer units or linkages, { } end groups; capitals alone tell only the bases. d = 2'-deoxy (DNA); m = 2'-O-methyl; f = 2'-fluoro

System: human EPAS1 (Hif2α) cDNA in psiCHECK2 (Renilla luciferase/EPAS1 fusion mRNA) in Hep3B cells
Experiment: Efficacy screen of Hif2α RNAi triggers in vitro, dual-luciferase reporter assay (1 nM and 0.1 nM)
Type: cell-based
Details: Hep3B cells co-transfected with EPAS1-psiCHECK2, Renilla luciferase normalized to firefly luciferase
Excerpt: Candidate sequences were identified by in silico analysis and screened as chemically modified canonical siRNAs in vitro. For screening purposes, the human EPAS1 (Hif2α) cDNA sequence (accession #NM 001430) was synthesized and cloned (DNA 2.0, Menlo Park, Calif.) into a commercially-available reporter-based screening plasmid, psiCHECK2 (Promega, Madison, Wis.) which generated a Renilla luciferase/EPAS1 fusion mRNA. For RNAi trigger efficacy evaluation, Hep3B cells, a human hepatocellular carcinoma line, were plated at 10,000 cells per well in 96-well format. Each of the 187 EPAS1 RNAi triggers, in two subsets, was co-transfected at two concentrations, 1 nM and 0.1 nM, with 25 ng EPAS1-psiCHECK2 plasmid DNA per well and 0.2 μL LipoFectamine 2000 (Life Technologies) per well. Gene knockdown was determined by measuring Renilla luciferase levels normalized to the levels of constitutively-expressed firefly luciferase, also present on the psiCHECK-2 plasmid, using the Dual Luciferase Reporter Assay (Promega, Madison, Wis.) Table 5.

| Substance | Relative Rluc-Hif2α (0.1 nM RNAi trigger) | Relative Rluc-Hif2α (1 nM RNAi trigger) |
| --- | --- | --- |
| 2365 (sense fCmUfGmAfUmGfGmCfAmCfGmUfUmGfUmGfGmGfAdT; antisense dTfCmCfCmAfCmAfAmCfGmUfGmCfCmAfUmCfAmGdT*dT; siRNA) [compound 2365] | 1.132 ± 0.107 | 1.259 ± 0.247 |
| 2298 (sense fAmUfGmCfAmGfUmAfCmCfCmAfGmAfCmGfGmAfAdT; antisense dTfUmCfCmGfUmCfUmGfGmGfUmAfCmUfGmCfAmUdT*dT; siRNA) [compound 2298] | 0.729 ± 0.092 | 0.695 ± 0.037 |
| 2332 (sense fUmAfCmAfAmGfAmUfGmGfAmCfUmUfAmCfCmUfAdT; antisense dTfAmGfGmUfAmAfGmUfCmCfAmUfCmUfUmGfUmAdT*dT; siRNA) [compound 2332] | 1.174 ± 0.027 | 0.871 ± 0.235 |
| 2275 (sense fUmGfCmGfCmUfAmGfAmCfUmCfCmGfAmGfAmAfAdT; antisense dTfUmUfCmUfCmGfGmAfGmUfCmUfAmGfCmGfCmAdT*dT; siRNA) [compound 2275] | 0.515 ± 0.264 | 0.464 ± 0.048 |
| 2268 (sense fUmAfUmGfAmAfUmUfCmUfAmCfCmAfUmGfCmGfAdT; antisense dTfCmGfCmAfUmGfGmUfAmGfAmAfUmUfCmAfUmAdT*dT; siRNA) [compound 2268] | 0.409 ± 0.023 | 0.210 ± 0.037 |
| 2333 (sense fGmGfAmCfUmUfAmCfCmUfGmGfCmAfGmAfCmUfAdT; antisense dTfAmGfUmCfUmGfCmCfAmGfGmUfAmAfGmUfCmCdT*dT; siRNA) [compound 2333] | 0.684 ± 0.147 | 0.291 ± 0.019 |
| 2389 (sense fAmAfCmUfAmUfUmUfAmGfUmAfAmGfCmCfCmGfAdT; antisense dTfCmGfGmGfCmUfUmAfCmUfAmAfAmUfAmGfUmUdT*dT; siRNA) [compound 2389] | 1.085 ± 0.307 | 0.820 ± 0.184 |
| 2328 (sense fGmCfAmUfGmGfCmAfAmGfCmCfGmGfCmUfGmCfAdT; antisense dTfGmCfAmGfCmCfGmGfCmUfUmGfCmCfAmUfGmCdT*dT; siRNA) [compound 2328] | 1.291 ± 0.109 | 1.192 ± 0.144 |
| 2271 (sense fGmAfAmUfUmCfUmAfCmCfAmUfGmCfGmCfUmAfAdT; antisense dTfUmAfGmCfGmCfAmUfGmGfUmAfGmAfAmUfUmCdT*dT; siRNA) [compound 2271] | 1.056 ± 0.291 | 0.930 ± 0.094 |
| 2381 (sense fAmCfGmAfCmCfUmUfGmGfAmGfCmCfCmCfGmUfAdT; antisense dTfAmCfGmGfGmGfCmUfCmCfAmAfGmGfUmCfGmUdT*dT; siRNA) [compound 2381] | 0.756 ± 0.109 | 1.063 ± 0.191 |
| 2240 (sense fCmGfUmCfUmGfAmAfCmGfUmCfUmCfAmAfAmGfAdT; antisense dTfCmUfUmUfGmAfGmAfCmGfUmUfCmAfGmAfCmGdT*dT; siRNA) [compound 2240] | 0.841 ± 0.048 | 0.845 ± 0.052 |
| 2345 (sense fCmCfAmAfCmGfUmAfUmGfUmGfGmUfUmAfUmCfAdT; antisense dTfGmAfUmAfAmCfCmAfCmAfUmAfCmGfUmUfGmGdT*dT; siRNA) [compound 2345] | 0.296 ± 0.096 | 0.129 ± 0.026 |
| 2244 (sense fGmGfGmAfCmUfUmAfCmAfCmAfGmGfUmGfGmAfAdT; antisense dTfUmCfCmAfCmCfUmGfUmGfUmAfAmGfUmCfCmCdT*dT; siRNA) [compound 2244] | 0.760 ± 0.050 | 0.915 ± 0.115 |
| 2261 (sense fAmGfGmCfCmGfUmAfCmUfGmUfCmAfAmCfCmUfAdT; antisense dTfAmGfGmUfUmGfAmCfAmGfUmAfCmGfGmCfCmUdT*dT; siRNA) [compound 2261] | 0.568 ± 0.065 | 0.657 ± 0.067 |
| 2294 (sense fGmCfUmCfCmAfCmGfCmCfCmAfAmUfAmGfCmCfAdT; antisense dTfGmGfCmUfAmUfUmGfGmGfCmGfUmGfGmAfGmCdT*dT; siRNA) [compound 2294] | 0.743 ± 0.100 | 0.546 ± 0.033 |
| 2366 (sense fGmGfCmAfCmGfUmUfGmUfGmGfGmGfUmCfGmGfAdT; antisense dTfCmCfGmAfCmCfCmCfAmCfAmAfCmGfUmGfCmCdT*dT; siRNA) [compound 2366] | 0.879 ± 0.223 | 0.695 ± 0.115 |
| 2272 (sense fAmAfUmUfCmUfAmCfCmAfUmGfCmGfCmUfAmGfAdT; antisense dTfCmUfAmGfCmGfCmAfUmGfGmUfAmGfAmAfUmUdT*dT; siRNA) [compound 2272] | 1.028 ± 0.281 | 0.864 ± 0.197 |

| Substance | Relative Rluc-Hif2α (0.1 nM RNAi trigger) | Relative Rluc-Hif2α (1 nM RNAi trigger) |
| --- | --- | --- |
| 2367 (sense fGmCfAmCfGmUfUmGfUmGfGmGfGmUfCmGfGmGfAdT; antisense dTfCmCfCmGfAmCfCmCfCmAfCmAfAmCfGmUfGmCdT*dT; siRNA) [compound 2367] | 0.665 ± 0.064 | 0.376 ± 0.039 |
| 2330 (sense fGmAfUmAfUmGfAmCfUmGfUmGfAmGfGmUfGmAfAdT; antisense dTfUmCfAmCfCmUfCmAfCmAfGmUfCmAfUmAfUmCdT*dT; siRNA) [compound 2330] | 1.097 ± 0.416 | 0.464 ± 0.035 |
| 2274 (sense fAmUfGmCfGmCfUmAfGmAfCmUfCmCfGmAfGmAfAdT; antisense dTfUmCfUmCfGmGfAmGfUmCfUmAfGmCfGmCfAmUdT*dT; siRNA) [compound 2274] | 0.870 ± 0.108 | 0.506 ± 0.074 |
| 2263 (sense fAmAfUmAfGmUfCmUfGmUfGmUfGmGfCmUfAmCfAdT; antisense dTfGmUfAmGfCmCfAmCfAmCfAmGfAmCfUmAfUmUdT*dT; siRNA) [compound 2263] | 1.126 ± 0.083 | 0.875 ± 0.059 |
| 2405 (sense fUmGfUmCfAmAfCmGfUmAfAmCfGmAfUmUfUmCfAdT; antisense dTfGmAfAmAfUmCfGmUfUmAfCmGfUmUfGmAfCmAdT*dT; siRNA) [compound 2405] | 0.261 ± 0.044 | 0.138 ± 0.035 |
| 2413 (sense fUmAfUmAfAmCfUmGfUmAfUmGfGmGfAmGfCmUfAdT; antisense dTfAmGfCmUfCmCfCmAfUmAfCmAfGmUfUmAfUmAdT*dT; siRNA) [compound 2413] | 0.675 ± 0.104 | 0.317 ± 0.055 |
| 2231 (sense fGmAfGmAfCmUfGmUfAmUfGmGfUmCfAmGfCmUfAdT; antisense dTfAmGfCmUfGmAfCmCfAmUfAmCfAmGfUmCfUmCdT*dT; siRNA) [compound 2231] | 0.544 ± 0.368 | 0.491 ± 0.198 |
| 2383 (sense fGmGfUmAfAmGfAmGfGmGfAmCfGmAfCmAfCmCfAdT; antisense dTfGmGfUmGfUmCfGmUfCmCfCmUfCmUfUmAfCmCdT*dT; siRNA) [compound 2383] | 0.833 ± 0.082 | 1.060 ± 0.292 |
| 2391 (sense fAmGfAmAfAmUfUmCfCmUfUmAfGmUfCmAfUmGfAdT; antisense dTfCmAfUmGfAmCfUmAfAmGfGmAfAmUfUmUfCmUdT*dT; siRNA) [compound 2391] | 0.273 ± 0.006 | 0.129 ± 0.015 |
| 2293 (sense fUmGfCmUfCmCfAmCfGmCfCmCfAmAfUmAfGmCfAdT; antisense dTfGmCfUmAfUmUfGmGfGmCfGmUfGmGfAmGfCmAdT*dT; siRNA) [compound 2293] | 1.010 ± 0.045 | 0.925 ± 0.126 |
| 2254 (sense fUmCfGmUfGmAfGmAfAmCfCmUfGmAfGmUfCmUfAdT; antisense dTfAmGfAmCfUmCfAmGfGmUfUmCfUmCfAmCfGmAdT*dT; siRNA) [compound 2254] | 0.756 ± 0.080 | 0.641 ± 0.054 |
| 2341 (sense fUmCfAmAfCmUfCmCfAmAfCmGfUmAfUmGfUmGfAdT; antisense dTfCmAfCmAfUmAfCmGfUmUfGmGfAmGfUmUfGmAdT*dT; siRNA) [compound 2341] | 0.378 ± 0.116 | 0.202 ± 0.018 |
| 2299 (sense fAmGfUmAfCmCfCmAfGmAfCmGfGmAfUmUfUmCfAdT; antisense dTfGmAfAmAfUmCfCmGfUmCfUmGfGmGfUmAfCmUdT*dT; siRNA) [compound 2299] | 0.907 ± 0.171 | 0.827 ± 0.067 |
| 2232 (sense fCmUfCmCfGmAfCmUfCmCfUmUfCmCfGmAfCmUfAdT; antisense dTfAmGfUmCfGmGfAmAfGmGfAmGfUmCfGmGfAmGdT*dT; siRNA) [compound 2232] | 0.684 ± 0.061 | 0.468 ± 0.032 |
| 2378 (sense fAmAfCmUfAmCfCmAfUmGfAmGfAmUfGmGfUmUfAdT; antisense dTfAmAfCmCfAmUfCmUfCmAfUmGfGmUfAmGfUmUdT*dT; siRNA) [compound 2378] | 0.994 ± 0.246 | 0.734 ± 0.170 |
| 2393 (sense fUmAfAmGfGmGfCmAfUmUfUmUfAmCfCmCfUmUfAdT; antisense dTfAmAfGmGfGmUfAmAfAmAfUmGfCmCfCmUfUmAdT*dT; siRNA) [compound 2393] | 0.862 ± 0.388 | 1.049 ± 0.089 |
